In publication PMC4942781, “A sodium channel inhibitor ISTX-I with a novel structure provides a new hint at the evolutionary link between two toxin folds” (Scientific Reports, 2016):
“Also recorded” adds a separate entry of the source. Bridge positions count the residues as written; N and C are the ends. Ends that are not written are not given here.

Test system: sodium channels
Experiment: Selectivity and mode of action on sodium channels, summary statements
Format: cell-based
Experimental: Rat DRG cells were acutely dissociated from adult Sprague-Dawley rats[30]. Briefly, adult rats of either sex with body weights of approximately 200 g were killed by decapitation. The dorsal root ganglia were isolated quickly from the spinal cord and then transferred into Dulbecco’s modified Eagle’s medium (DMEM) containing trypsin I (0.15 mg/mL) and collagenase II (0.3 mg/mL) for incubation with an oscillation frequency of 200 rpm at 37 °C for 20 min. The trypsin inhibitor II-S (1 mg/mL) was added to terminate the reaction. The isolated DRG cells were split into 35 mm culture dishes with DMEM solution containing 10% fetal bovine serum (FBS) and were incubated in a CO2 incubator (5% CO2, 95% air, 37 °C) for 1–4 h before the patch-clamp experiment. […]
DRG neurons with a large diameter (>[…]) and those with a relatively small diameter (<[…]) were chosen by measuring TTX-s and TTX-r currents, respectively. […] Potassium, calcium, and sodium currents were recorded in experimental cells using whole-cell patch-clamp recordings at room temperature, which were performed with an HEK EPC10 patch-clamp amplifier. […] Experimental data were acquired and analyzed using the programs patch master and Sigmaplot 9.0 (Sigma, USA). […]
Currents were recorded from experimental cells using whole-cell patch clamptechnique at room temperature (22–25 °C). […]

## LCSENGDCAADECCVDTVFEGDMVTRSCEKTTGNFTECPGLTPIA (disulfide 2-14, 8-28, 13-38) [ISTX-I]
  shift of I-V and G-V curves upon inhibition of sodium channels (summary): without any shifts of the I-V and G-V curves
  sodium channel subtype selectivity (in words): not other sodium channel subtypes; also recorded: specific activity on Nav1.7 subtypes; also recorded: subtype-selective inhibitor of Nav1.7
